Entries after “also recorded” stand apart in the source; their conditions may differ.
Columns and labels:
[1] = cited from earlier work
[2] = cited from earlier work; remark: listed apart in the source
HIV [3] = conditions: cited from earlier work
[4] = test system: Mycobacterium avium-intracellulare; conditions: human, in vivo; cited from earlier work
HIV [5] = conditions: clinical trials; cited from earlier work
[6] = test system: Herpes Simplex Virus-1 (HSV1); test: Antiviral experiment in mice infected IP with Herpes Simplex Virus-1; format: in vivo, HSV1 (Schloser), in ICR mice
Method: An antiviral experiment was conducted to compare treatment with 6-(5-Cholesten-3β-yloxy)hexyl 1-thio-β-D-mannopyranoside (Example 2) in mice infected IP with Herpes Simplex Virus-1 (HSV1) immediately before (post treatment) or after 5 days of treatment (pretreatment).
Ten mice (ICR, 20 gm, mixed sexes) were pretreated by SC injection of a 0.1 mL suspension of test compound twice a day for 4 days. On day 5, the mice were injected IP with 0.5 mL solution of HSV1 (Schloser, 10-5). The post treatment group was infected with HSV1 prior to administration of test compound. Day of death from time of infection with HSV1 was recorded for each mouse and average day of death per treatment group was calculated.

Pseudomonas aeruginosa = test: Stimulation of host resistance: protection of cyclophosphamide-immunocompromised mice from Pseudomonas aeruginosa infection; format: in vivo, Pseudomonas aeruginosa (Immunotype 1), in CF1 female mice; conditions: Table 3, CY-treated mice, dose not printed in table (initial test dose 40 mg per kg)
Method: Groups of 15-20 CF1 female mice (Charles River Breeding, Cambridge, Mass.) weighing 22-28 gm were injected intraperitoneally (i.p.) with cyclophosphamide (Cytoxan; CY) at 250 mg per kg body weight. One to two hours later they were typically injected again with the test material by the route specified. Four days later, the mice were divided into groups of five, each of which were injected i.p. with a different dilution of a suspension of Pseudomonas aeruginosa (Immunotype 1). The number of survivors was determined periodically and an estimate was made of the number of CFU of Pseudomonas organisms necessary to cause 50% lethality by the cumulative method of L. J. Reed and H. Muench (Am. J. Hygiene 27 (1938) 493-497). A protective index (P.I.) was defined as the LD50 for the mice receiving cyclophosphamide and the test compound divided by the LD50 for the mice receiving cyclophosphamide alone. All control mice were injected with aqueous vehicle in the same route and schedule as the test animals.
MATERIALS. All compounds for dosing were suspended in a sterile medium referred to as "aqueous vehicle" which contains 0.9% sodium chloride, 0.5% carboxymethyl cellulose, 0.4% Tween 80, and 0.9% benzyl alcohol unless otherwise stated. Test materials were evaluated via subcutaneous (s.c.), i.p., intramuscular (i.m.), orally (p.o.). and intravenous (i.v.) routes of administration. […]

[7] = test system: human immunodeficiency virus (HIV); conditions: cited from earlier work
[8] = test system: reverse transcriptase in several retroviruses; conditions: in vitro; cited from earlier work
Kaposi's sarcoma = conditions: in vivo; cited from earlier work

Cc1cn([C@H]2C[C@H](N=[N+]=[N-])[C@@H](CO)O2)c(=O)[nH]c1=O [AZT, 3'-azido-3'-deoxythymidine]
half-life in the body ([1]; in vivo): relatively short half-life in the body | oral absorption ([1]; oral): Well absorbed orally | toxicity ([2]; in vivo): some toxicity, with anemia and headaches | prolonging lives of patients with AIDS or ARC (HIV [3]; human, in vivo): show promise in prolonging lives of patients with AIDS or AIDS-related complex (ARC)

CO[C@H]1/C=C/O[C@@]2(C)Oc3c(C)c(O)c4c(c3C2=O)C2=NC3(CCN(CC(C)C)CC3)NC2=C(NC(=O)/C(C)=C\C=C\[C@H](C)[C@H](O)[C@@H](C)[C@@H](O)[C@@H](C)[C@H](OC(C)=O)[C@@H]1C)C4=O [Ansamycin, rifabutin]
efficacy in AIDS patients with opportunistic infection [4]: some efficacy in treating AIDS patients with an opportunistic infection

CC(C)(N1CC1C#N)N1CC1C(N)=O (stereo not drawn) [Azimexon]
toxic effect ([2]; early trial, disappeared when treatment ceased): only toxic effect was mild hemolysis | symptoms and immune function (HIV [3]; early trial, ARC and AIDS patients): improvements in symptoms and immune function in patients with ARC but not AIDS

CC(C)(S)[C@@H](N)C(=O)O [D-Penicillamine, 3-mercapto-D-valine]
HIV reproduction / viral replication in patients (HIV [5]): Inhibits HIV reproduction in humans; also recorded: suppressed the virus

CC(C)CCC[C@@H](C)[C@H]1CC[C@H]2[C@@H]3CC=C4C[C@@H](OCCCCCCS[C@@H]5O[C@H](CO)[C@@H](O)[C@H](O)[C@@H]5O)CC[C@]4(C)[C@H]3CC[C@]12C [Example 2, 6-(5-Cholesten-3β-yloxy)hexyl 1-thio-β-D-mannopyranoside]
protection from fatal viral infection over placebo treated animals, by day of death ([6]; 50 mg/kg twice a day for four days): statistically enhanced protection from fatal viral infection over placebo treated animals | protection of pretreated mice over the post treatment group ([6]; pretreatment vs post treatment): statistically enhanced protection over the post treatment group

CC[C@H](/C=C/[C@@H](C)[C@H]1CC[C@H]2[C@@H]3CC=C4C[C@@H](OCCCCCCS[C@@H]5O[C@H](CO)[C@@H](O)[C@H](O)[C@@H]5O)CC[C@]4(C)[C@H]3CC[C@]12C)C(C)C [Example 6, 6-(Stigmasta-5,22-dien-3β-yloxy)hexyl 1-thio-β-D-mannopyranoside]
Protective Index (log) (Pseudomonas aeruginosa): 2.0 log

CC(=O)NC(C)C1CCC2C3CC=C4CC(OCCCCCCSC5OC(CO)C(O)C(O)C5O)CCC4(C)C3CCC12C [Example 11, 6-(20S-Acetamido-pregn-5-en-3β-yloxy)hexyl 1-thio-β-D-mannopyranoside]
Protective Index (log) (Pseudomonas aeruginosa): 3.0 log

O=C(O)P(=O)(O)O [Foscarnet, trisodium phosphonoformate]
side effects ([2]; in vivo): serious side effects

CC(=O)Nc1ccc(C(=O)O)cc1.CC(=O)Nc1ccc(C(=O)O)cc1.CC(=O)Nc1ccc(C(=O)O)cc1.CC(O)CN(C)C.CC(O)CN(C)C.CC(O)CN(C)C.O=c1[nH]cnc2c1ncn2[C@@H]1O[C@H](CO)[C@@H](O)[C@H]1O [Inosine pranobex]
immune function in ARC or AIDS patients (HIV [3]; human, in vivo): improve immune function in ARC patients

NC(=O)c1ncn([C@@H]2O[C@H](CO)[C@@H](O)[C@H]2O)n1 [Ribavirin, 1-β-D-ribofuranosyl-1,2,4-triazole-3-carboxamide]
HIV reproduction / viral replication in patients (HIV [5]): inhibited viral replication | safety profile ([2]; in vivo): acceptable | tolerability ([2]; in vivo): well tolerated | immune function in ARC or AIDS patients (HIV [3]; human, in vivo): improved immune function in AIDS patients

Cc1ccc(C(=O)Nc2ccc(S(=O)(=O)O)c3cc(S(=O)(=O)O)cc(S(=O)(=O)O)c23)cc1NC(=O)c1cccc(NC(=O)Nc2cccc(C(=O)Nc3cc(C(=O)Nc4ccc(S(=O)(=O)O)c5cc(S(=O)(=O)O)cc(S(=O)(=O)O)c45)ccc3C)c2)c1 [Suramin]
therapeutic benefit or clinical improvement in AIDS patients (HIV [3]): little or no evidence of clinical improvement or immunologic recovery

ammonium 21-tungsto-9-antimoniate [HPA-23]
growth of HIV [7]: some tendency to check the growth of HIV | reverse transcriptase inhibition, several retroviruses [8]: Inhibits reverse transcriptase in several retroviruses in vitro | therapeutic benefit or clinical improvement in AIDS patients (HIV [3]): no therapeutic benefit has been documented in AIDS patients

α-Interferon
tumor regression in AIDS-related Kaposi's sarcoma (Kaposi's sarcoma): induced tumor regression in some AIDS-related Kaposi's sarcoma cases | growth of HIV [7]: Checks the growth of HIV in vitro

Source: patent publication US4970199A, “Steroidal glycolipids as host resistance stimulators against viral infection” (priority 1989, dated 1990)
